For five molecules, mutagenic call results are on record in PubChem BioAssay AID1259407 (Chemical Carcinogenesis Research Information System (CCRIS), 2018).

This data set concerns CCRIS mutagenicity, Ames/micronucleus/aberration tests. As to the kind of experiment: CCRIS mutagenicity studies. As to conditions: Test System: AMES SALMONELLA TYPHIMURIUM
Where [1] appears, read: Strain/Indicator: TA98, Metabolic Activation: NONE, Method: STANDARD PLATE.
The mark [2] stands for this setting: Strain/Indicator: TA98, Metabolic Activation: RAT, LIVER, S-9, AROCLOR 1254, Method: STANDARD PLATE.
[3] abbreviates: Strain/Indicator: TA100, Metabolic Activation: NONE, Method: STANDARD PLATE.
[4] abbreviates: Strain/Indicator: TA100, Metabolic Activation: RAT, LIVER, S-9, AROCLOR 1254, Method: STANDARD PLATE.

The source made the active and inactive calls. How the calls were made is not given here.

For `Cc1cc2c(nc1N)[nH]c1ccccc12`, the mutagenic call (Strain/Indicator: TA98, Metabolic Activation: RAT, LIVER, S-9, AROCLOR 1254, Method: PREINCUBATION) was “active; positive”; the mutagenic call (Strain/Indicator: TA100, Metabolic Activation: RAT, LIVER, S-9, AROCLOR 1254, Method: PREINCUBATION) was “active; positive”; the mutagenic call (Strain/Indicator: YG1019, Metabolic Activation: RAT LIVER S-9, AROCLOR, Method: PREINCUBATION) is “active; positive”.

Consider `O=[N+]([O-])c1cc2ccc3cccc4ccc(c1O)c2c34`, for which the mutagenic call by setting is: (Strain/Indicator: TA98(NR), Metabolic Activation: NONE, Method: STANDARD PLATE) “active; positive”; under setting [1], “active; positive”; under setting [2], “active; positive”; under setting [3], “active; positive”; under setting [4], “active; positive”.

As to `O=C(O)C(=O)C(=O)O`, the mutagenic call by setting is: (Strain/Indicator: TA97, Metabolic Activation: NONE, Method: PREINCUBATION) “inactive; negative”; (Strain/Indicator: TA97, Metabolic Activation: RAT, LIVER, S-9, PHENOBARBITAL AND 5,6-BENZOFLAVONE, Method: PREINCUBATION) “inactive; negative”; (Strain/Indicator: TA98, Metabolic Activation: NONE, Method: PREINCUBATION) “inactive; negative”; (Strain/Indicator: TA98, Metabolic Activation: RAT, LIVER, S-9, PHENOBARBITAL AND 5,6-BENZOFLAVONE, Method: PREINCUBATION) “inactive; negative”; (Strain/Indicator: TA100, Metabolic Activation: NONE, Method: PREINCUBATION) “inactive; negative”; (Strain/Indicator: TA100, Metabolic Activation: RAT, LIVER, S-9, PHENOBARBITAL AND 5,6-BENZOFLAVONE, Method: PREINCUBATION) “inactive; negative”. Further, the mutagenic call runs as follows: (Strain/Indicator: TA102, Metabolic Activation: NONE, Method: PREINCUBATION) “inactive; negative”; (Strain/Indicator: TA102, Metabolic Activation: RAT, LIVER, S-9, PHENOBARBITAL AND 5,6-BENZOFLAVONE, Method: PREINCUBATION) “inactive; negative”; (Strain/Indicator: TA104, Metabolic Activation: NONE, Method: PREINCUBATION) “inactive; negative”; (Strain/Indicator: TA104, Metabolic Activation: RAT, LIVER, S-9, PHENOBARBITAL AND 5,6-BENZOFLAVONE, Method: PREINCUBATION) “inactive; negative”.

Take `CC1(C)CC(N)CC(C)(C)N1[O]`: the mutagenic call reads like this: under setting [1], “active; positive”; (Strain/Indicator: TA98, Metabolic Activation: RAT LIVER S-9, PCB, Method: STANDARD PLATE) “inactive; negative”; under setting [3], “active; positive”; (Strain/Indicator: TA100, Metabolic Activation: RAT LIVER S-9, PCB, Method: STANDARD PLATE) “inactive; negative”; (Strain/Indicator: TA102, Metabolic Activation: NONE, Method: STANDARD PLATE) “inactive; negative”.

For `Nc1ccc2c(c1)Cc1cc(N)ccc1-2`, the mutagenic call is “active; positive” under setting [1]; “active; positive” under setting [2]; “inactive; negative” under setting [3]; “active; positive” under setting [4]; “active; positive” (Strain/Indicator: TA1538, Metabolic Activation: NONE, Method: STANDARD PLATE); “active; positive” (Strain/Indicator: TA1538, Metabolic Activation: RAT, LIVER, S-9, AROCLOR 1254, Method: STANDARD PLATE).
